Data: BigSolDB 2.1

O=P(NC1CCCCC1)(Oc1ccccc1)Oc1ccccc1
solubility (mole fraction)
Conditions | in THF | in acetone | in acetonitrile | in benzene | in chloroform | in dichloromethane | in ethanol | in ethyl acetate | in methanol | in toluene
278.15 K | – | – | – | – | – | 0.0884 | – | – | – | –
283.15 K | – | – | – | – | – | 0.102 | – | – | – | –
288.15 K | – | – | – | – | – | 0.129 | – | – | – | –
293.15 K | 0.168 | 0.0439 | 0.0115 | 0.077 | 0.207 | 0.155 | 0.0358 | 0.0305 | 0.0411 | 0.0539
298.15 K | 0.192 | 0.0611 | 0.0171 | 0.0991 | 0.233 | 0.18 | 0.049 | 0.0395 | 0.0533 | 0.0688
303.15 K | 0.229 | 0.0796 | 0.0248 | 0.127 | 0.266 | 0.216 | 0.0638 | 0.0549 | 0.0702 | 0.0911
308.15 K | 0.269 | 0.109 | 0.0371 | 0.159 | 0.313 | 0.26 | 0.0867 | 0.0721 | 0.0955 | –
313.15 K | 0.318 | 0.134 | 0.0521 | 0.195 | 0.352 | – | 0.116 | 0.0946 | 0.121 | 0.154
318.15 K | 0.372 | 0.187 | 0.0759 | 0.25 | 0.4 | – | 0.153 | 0.128 | 0.161 | –
323.15 K | 0.419 | 0.229 | 0.106 | 0.292 | 0.459 | – | 0.196 | 0.166 | 0.212 | 0.259
328.15 K | 0.504 | 0.271 | 0.148 | 0.374 | 0.518 | – | 0.253 | 0.211 | 0.281 | –
333.15 K | 0.567 | – | 0.191 | 0.457 | – | – | 0.317 | 0.264 | 0.356 | 0.409
338.15 K | – | – | 0.263 | 0.55 | – | – | 0.406 | 0.341 | – | –
343.15 K | – | – | 0.358 | 0.636 | – | – | – | 0.426 | – | 0.611
